Results published in patent publication US10689622B2, “Culture medium for proliferating stem cell, which contains sulfated compound” (AJINOMOTO CO., INC., priority 2012, dated 2020).

Columns and labels:
bFGF [1] = biological target: T1, bFGF (Homo sapiens, UniProt P09038); assay: Evaluation of bFGF stabilization in Lonza serum-free medium (ELISA); assay type: biochemical
T1 construct: purchased Lonza (via TAKARA BIO INC.) Ser. No. 00/190,632
Protocol: (§1) A test compound was dissolved in phosphate buffered saline, and diluted 10-fold with a serum-free medium to adjust to the concentrations shown in Table 4 (test sample). The test sample was left standing in a tightly sealed Falcon tube at 37° C. for 7 days (Tables 5 to 8-2) or 3 days (Table 8-3), and the bFGF concentration was quantified by ELISA measurement. A phosphate buffered saline without a test compound was diluted 10-fold with a serum-free medium, and left standing at 37° C. or 4° C. for 7 days or 3 days, and used as a control.
(§2) A commercially available measurement kit (human bFGF ELISA kit, ELH-bFGF-001, Ray Biotech) was used for quantification of bFGF in the medium. The measurement procedures followed the protocol attached to the kit. The bFGF concentration of the serum-free medium was calculated from the analytical curve (conversion formula) drawn from the absorbance of an analytical curve standard solution. The evaluation criteria of Tables 5-8 are as follows:
as §1, with “Table 13” for “Table 4”, “7 days,” for “7 days (Tables 5 to 8-2) or 3 days (Table 8-3),”, “7” for “7 days or 3”
as §2, with “Table 13” for “Tables 5-8”, “follows: […]” for “follows:”

bFGF [2] = biological target: T1, bFGF; assay: Evaluation of bFGF stabilization in Essential 8 medium (ELISA); assay type: biochemical; settings: 37° C. for 7 days
Protocol: as §2
(§3) A test compound was dissolved in phosphate buffered saline, and diluted 10-fold with a serum-free medium to adjust the concentration shown in Table 4 (test sample). The test sample was left standing in a tightly sealed Falcon tube at 37° C. for 7 days, and the bFGF concentration was quantified by ELISA measurement. A phosphate buffered saline without a test compound was diluted 10-fold with Essential 8 medium or ReproFF2 medium, and left standing at 37° C. or 4° C. for 7 days, and used as a control.
as §2, with “Table 13” for “Tables 5-8”
as §3, with “Table 12” for “Table 4”

[3] = tested on: Human bone marrow-derived mesenchymal stem cells; assay: Mesenchymal stem cell proliferation system (cell number by DNA quantification)
Protocol: Human bone marrow-derived mesenchymal stem cells (Lonza, Human Mesenchymal Stem Cell) cultured in mesenchymal stem cell-dedicated medium (Lonza, MSCGM) or Dulbecco's Modified Eagle Medium (Invitrogen, GIBCO D-MEM) containing inactivated fetal bovine serum (Invitrogen, GIBCO FBS) and penicillin-streptomycin (Sigma-Aldrich Co. LLC.) were cultured in exchanged Lonza serum-free medium. The mesenchymal stem cells thus-acclimated to serum-free culture were suspended in Lonza serum-free medium, and seeded on a 24 well culture plate (Nippon Becton Dickinson Company, Ltd., Falcon culture plate) at 20,000 cells/well or a 6 well culture plate (Nippon Becton Dickinson Company, Ltd., Falcon culture plate) at 50,000 cells/well. Then, a test compound solution after filter sterilization and adjustment to a given concentration was added, and the cells were cultured in an incubator (Thermo Scientific, Forma incubator) under the 5% CO2/37° C. conditions for 7 to 8 days. When the medium exchange was necessary, the medium was exchanged 2 to 3 days after the seeding. In this case, the test compound solution was also added again in the same manner as in seeding. In this case, various compound solutions were added again in the same manner as in seeding. After culturing for 7 to 8 days, the medium was removed and DNA quantification was performed. As a control, the cells were cultured in the same manner in a medium without a test compound and added with phosphate buffered saline.
The medium in the 24 well culture plate was removed, and the cells were washed with phosphate buffered saline. The sodium lauryl sulfate solution (500 μl/well) was added, and the mixture was left standing at 37° C. for 4 hours. The sodium lauryl sulfate solution (1.0 ml) was also added to a cell pellet with a known cell number, and the mixture was left standing at 37° C. for 4 hours. As for the cells in the 24 well culture plate, a part (50 μl) of the lysate was transferred to a 96 well black microplate. The solution used for treating the cell pellets was successively diluted with sodium lauryl sulfate solution and used as solutions for drawing an analytical curve. Also, a part (50 μl) of the solutions for drawing an analytical curve was each transferred to the 96 well black microplate. […] The fluorescence was measured by a microplate reader (excitation wavelength: 355 nm, measurement wavelength: 460 nm) within 5 minutes from the addition. The cell number of the 24 well cell culture plate was calculated from the analytical curve drawn (conversion formula). The evaluation criteria were as follows.

[4] = Lonza serum-free medium, 37° C. for 7 days, test compound 25 ng/ml
[5] = Lonza serum-free medium, 37° C. for 7 days, test compound 250 ng/ml
[6] = Lonza serum-free medium, 37° C. for 7 days, test compound 25 μg/ml
[7] = Lonza serum-free medium, 37° C. for 7 days, test compound 250 μg/ml
[8] = Lonza serum-free medium, 37° C. for 7 days, test compound 250 pg/ml

T1 sequence (P09038 143-288): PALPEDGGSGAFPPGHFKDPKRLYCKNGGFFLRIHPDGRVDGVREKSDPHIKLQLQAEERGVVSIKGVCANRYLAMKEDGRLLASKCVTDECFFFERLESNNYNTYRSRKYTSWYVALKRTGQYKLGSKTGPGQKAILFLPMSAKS

Compound	bFGF concentration relative to that of 4° C. control (ELISA) (bFGF [1]; [4])	bFGF concentration relative to that of 4° C. control (ELISA) (bFGF [1]; [5])	bFGF concentration relative to that of 4° C. control (ELISA) (bFGF [1]; [6])	bFGF concentration relative to that of 4° C. control (ELISA) (bFGF [1]; [7])	further results
tartrate-SO3Na	x (bFGF concentration was less than 10% relative to that of 4 °C control)	− (bFGF concentration was not less than 10% and less than 30% relative to that of 4 °C control)	x (bFGF concentration was less than 10% relative to that of 4 °C control)	x (bFGF concentration was less than 10% relative to that of 4 °C control)	concentration at which a decrease in the protein amount of FGF is not suppressed (bFGF [1]; as shown in the Examples (methods of Examples I-1 and II-1)): not more than 250 μg/ml; effectiveness ELISA (bFGF [1]; effectiveness in ELISA evaluation of mesenchymal stem cells (medium), 4° C. control ratio): ++ (++ 50%<); concentration showing a suppressive effect on a decrease in the bFGF concentration of the medium (bFGF [2]): not less than 250 μg/ml; bFGF concentration relative to that of 4° C. control (ELISA) (bFGF [2]; test compound 250 pg/ml): x (bFGF concentration was less than 10% relative to that of 4 °C control); bFGF concentration relative to that of 4° C. control (ELISA) (bFGF [2]; test compound 25 ng/ml): x (bFGF concentration was less than 10% relative to that of 4 °C control); bFGF concentration relative to that of 4° C. control (ELISA) (bFGF [2]; test compound 250 ng/ml): x (bFGF concentration was less than 10% relative to that of 4 °C control); bFGF concentration relative to that of 4° C. control (ELISA) (bFGF [2]; test compound 25 μg/ml): x (bFGF concentration was less than 10% relative to that of 4 °C control); bFGF concentration relative to that of 4° C. control (ELISA) (bFGF [2]; test compound 250 μg/ml): − (bFGF concentration was not less than 10% and less than 30% relative to that of 4 °C control); effectiveness cells ([3]; growth of mesenchymal stem cell, control ratio): ◯ (◯ not leas than 100%); concentration showing promoted cell proliferation as compared to the control ([3]; mesenchymal stem cells, Lonza serum-free medium): 2.5 ng/mL
N[C@@H](CO)C(=O)O [serine, reference compound]	x (bFGF concentration was less than 10% relative to that of 4 °C control)	x (bFGF concentration was less than 10% relative to that of 4 °C control)	x (bFGF concentration was less than 10% relative to that of 4 °C control)	x (bFGF concentration was less than 10% relative to that of 4 °C control)	bFGF concentration relative to that of 4° C. control (ELISA) (bFGF [1]; [8]): x (bFGF concentration was less than 10% relative to that of 4 °C control)
OC[C@H]1O[C@H](O[C@H]2[C@H](O)[C@@H](O)[C@@H](O[C@H]3[C@H](O)[C@@H](O)C(O)O[C@@H]3CO)O[C@@H]2CO)[C@H](O)[C@@H](O)[C@@H]1O (stereo partly drawn) [maltotriose, reference compound]	x (bFGF concentration was less than 10% relative to that of 4 °C control)	x (bFGF concentration was less than 10% relative to that of 4 °C control)	x (bFGF concentration was less than 10% relative to that of 4 °C control)	x (bFGF concentration was less than 10% relative to that of 4 °C control)	bFGF concentration relative to that of 4° C. control (ELISA) (bFGF [2]; test compound 250 pg/ml): x (bFGF concentration was less than 10% relative to that of 4 °C control); bFGF concentration relative to that of 4° C. control (ELISA) (bFGF [2]; test compound 25 ng/ml): x (bFGF concentration was less than 10% relative to that of 4 °C control); bFGF concentration relative to that of 4° C. control (ELISA) (bFGF [2]; test compound 250 ng/ml): x (bFGF concentration was less than 10% relative to that of 4 °C control); bFGF concentration relative to that of 4° C. control (ELISA) (bFGF [2]; test compound 25 μg/ml): x (bFGF concentration was less than 10% relative to that of 4 °C control); bFGF concentration relative to that of 4° C. control (ELISA) (bFGF [2]; test compound 250 μg/ml): x (bFGF concentration was less than 10% relative to that of 4 °C control)
OC[C@H]1O[C@@](CO)(O[C@H]2O[C@H](CO)[C@@H](O)[C@H](O)[C@H]2O)[C@@H](O)[C@@H]1O [sucrose, reference compound]	x (bFGF concentration was less than 10% relative to that of 4 °C control)	x (bFGF concentration was less than 10% relative to that of 4 °C control)	x (bFGF concentration was less than 10% relative to that of 4 °C control)		
OC[C@H]1O[C@@H]2O[C@H]3[C@H](O)[C@@H](O)[C@@H](O[C@H]4[C@H](O)[C@@H](O)[C@@H](O[C@H]5[C@H](O)[C@@H](O)[C@@H](O[C@H]6[C@H](O)[C@@H](O)[C@@H](O[C@H]7[C@H](O)[C@@H](O)[C@@H](O[C@H]1[C@H](O)[C@H]2O)O[C@@H]7CO)O[C@@H]6CO)O[C@@H]5CO)O[C@@H]4CO)O[C@@H]3CO [α-CD, α-cyclodextrin, reference compound]				x (bFGF concentration was less than 10% relative to that of 4 °C control)	
OC[C@@H](O)[C@@H](O)[C@H](O)[C@H](O)CO [mannitol, reference compound]	x (bFGF concentration was less than 10% relative to that of 4 °C control)	x (bFGF concentration was less than 10% relative to that of 4 °C control)	x (bFGF concentration was less than 10% relative to that of 4 °C control)	x (bFGF concentration was less than 10% relative to that of 4 °C control)	
OC[C@@H](O)[C@@H](O[C@H]1O[C@H](CO)[C@@H](O)[C@H](O)[C@H]1O)[C@H](O)[C@@H](O)CO [maltitol, reference compound]	x (bFGF concentration was less than 10% relative to that of 4 °C control)	x (bFGF concentration was less than 10% relative to that of 4 °C control)	x (bFGF concentration was less than 10% relative to that of 4 °C control)	x (bFGF concentration was less than 10% relative to that of 4 °C control)	
NC(COS(=O)(=O)[O-])C(=O)O.[Na+] (stereo not drawn) [serine SO3Na]	x (bFGF concentration was less than 10% relative to that of 4 °C control)	x (bFGF concentration was less than 10% relative to that of 4 °C control)	− (bFGF concentration was not less than 10% and less than 30% relative to that of 4 °C control)	+++ (bFGF concentration was not less than 70% relative to that of 4 °C control)	concentration showing a suppressive effect on a decrease in the bFGF concentration of the medium (bFGF [1]; Lonza serum-free medium, 37° C. for 7 days): not less than 25 μg/ml; bFGF concentration relative to that of 4° C. control (ELISA) (bFGF [1]; [8]): x (bFGF concentration was less than 10% relative to that of 4 °C control); number of cells relative to control ([3]; test compound 25 pg/ml, mesenchymal stem cells): — (100-50); number of cells relative to control ([3]; test compound 250 pg/ml, mesenchymal stem cells): — (100-50); number of cells relative to control ([3]; test compound 25 ng/ml, mesenchymal stem cells): — (100-50); number of cells relative to control ([3]; test compound 250 ng/ml, mesenchymal stem cells): — (100-50)
OC[C@@H](O)[C@H](O)[C@@H](O)CO [xylitol, reference compound]	x (bFGF concentration was less than 10% relative to that of 4 °C control)	x (bFGF concentration was less than 10% relative to that of 4 °C control)	x (bFGF concentration was less than 10% relative to that of 4 °C control)	x (bFGF concentration was less than 10% relative to that of 4 °C control)	
